From patent US11532406B2, “High specific activity preparation of F-18 tetrafluoroborate” (Mayo Foundation for Medical Education and Research, priority 2016, dated 2022)
Entries after “also recorded” stand apart in the source; their conditions may differ.

How the values were obtained:
[1] = Measurements in venous blood and urine samples, HPLC metabolite analysis; type: in vivo, human; settings: all urine samples, approximately 50, 160, 250 min
[2] = ~400 MBq ^18F-TFB synthesized by the conventional method, human subject; Jauregui-Osoro et al. (14); cited from earlier work
[3] = PET/CT imaging of ^18F-TFB in healthy participants (pharmacokinetics, biodistribution); type: in vivo, human
Description: Approval of the study was obtained from the Mayo Clinic Institutional Review Board and all participants provided informed consent. Four male (36±14 y) and four female (35±8 y) healthy volunteers were enrolled in the study. Participants were excluded that had previous diagnosis of cancer or clinically significant cardiovascular, renal, pulmonary, metabolic, and endocrine (thyroid) diseases. Participants were not required to fast prior to the imaging study but instructed to remain well-hydrated.
The imaging protocol is illustrated in FIG. 13. After voiding of the bladder, participants were positioned in a GE 690XT PET/CT scanner (GE HealthCare, Waukesha, Wis.) in a supine position with the heart in the center of the axial field of view. Intravenous catheters were placed in both arms for radiotracer injection and blood sampling. Computed tomography scans of the thorax were initially acquired in the preparation for a dynamic PET data acquisition over the heart for the first 45 min following commencement of radiotracer administration. ^18F-TFB (333-407 MBq) was administered over 1 minute into one of the catheters. The frame sequence for initial dynamic PET acquisition was 15×4, 8×15, 4×30, and 8×300 seconds. Following the dynamic heart scan, the participants were allowed a break from the scanner, during which time voided their bladders. Two additional PET/CT scans, from the vertex of the skull to mid-thigh, were performed at 2 hours and 3.5 hours respectively. The last PET/CT scan was completed ˜4 h post-injection.
All PET scans images were reconstructed using 3D OSEM and time-of-flight reconstruction. Volumes of interest (VOI's) of organs were drawn using PMOD software (Ver. 3.5). Standardized Uptake Values (SUVs) normalized to body weight were then calculated for each VOI. Time-activity curves (TACs) were evaluated from the initial dynamic scan over the heart for left-ventricular blood pool, lung and liver regions.

[4] = representative participant, post-administration

SMILES: F[B-](F)(F)[18F] [^18F-TFB, ^18F-tetrafluoroborate]
- radioactivity in the form of ^18F-TFB in urine [1]: > 97%
- estimated plasma concentration of TFB [2]: ~0.1 µM
- PET/CT-derived distribution (SUV), Bone ([3]; females, 2 h post-injection): 0.74 ± 0.20 SUV
- PET/CT-derived distribution (SUV), Brain ([3]; females, 2 h post-injection): 0.42 ± 0.15 SUV
- PET/CT-derived distribution (SUV), Breast ([3]; females, 2 h post-injection): 2.8 ± 0.4 SUV
- PET/CT-derived distribution (SUV), Gallbladder ([3]; females, 2 h post-injection): 3.7 ± 1.0 SUV
- PET/CT-derived distribution (SUV), Intestines ([3]; females, 2 h post-injection): 5.0 ± 2.7 SUV
- PET/CT-derived distribution (SUV), Kidney ([3]; females, 2 h post-injection): 5.6 ± 0.7 SUV
- PET/CT-derived distribution (SUV), Liver ([3]; females, 2 h post-injection): 2.7 ± 0.5 SUV
- PET/CT-derived distribution (SUV), Lung ([3]; females, 2 h post-injection): 1.2 ± 0.4 SUV
- PET/CT-derived distribution (SUV), Muscle ([3]; females, 2 h post-injection): 0.65 ± 0.35 SUV
- PET/CT-derived distribution (SUV), Myocardium ([3]; females, 2 h post-injection): 2.8 ± 0.5 SUV
- PET/CT-derived distribution (SUV), Pancreas ([3]; females, 2 h post-injection): 3.1 ± 1.7 SUV
- PET/CT-derived distribution (SUV), Parotid ([3]; females, 2 h post-injection): 20 ± 11 SUV
- PET/CT-derived distribution (SUV), Spleen ([3]; females, 2 h post-injection): 4.3 ± 1.0 SUV
- PET/CT-derived distribution (SUV), Stomach ([3]; females, 2 h post-injection): 72 ± 10 SUV
- PET/CT-derived distribution (SUV), Thyroid ([3]; females, 2 h post-injection): 50 ± 11 SUV
- PET/CT-derived distribution (SUV), Bone ([3]; females, 3.5 h post-injection): 1.3±0.9 SUV
- PET/CT-derived distribution (SUV), Brain ([3]; females, 3.5 h post-injection): 0.61 ± 0.34 SUV
- PET/CT-derived distribution (SUV), Breast ([3]; females, 3.5 h post-injection): 3.9 ± 1.4 SUV
- PET/CT-derived distribution (SUV), Gallbladder ([3]; females, 3.5 h post-injection): 5.0 ± 1.6 SUV
- PET/CT-derived distribution (SUV), Intestines ([3]; females, 3.5 h post-injection): 6.0 ± 3.1 SUV
- PET/CT-derived distribution (SUV), Kidney ([3]; females, 3.5 h post-injection): 6.3 ± 2.4 SUV
- PET/CT-derived distribution (SUV), Liver ([3]; females, 3.5 h post-injection): 3.5 ± 1.6 SUV
- PET/CT-derived distribution (SUV), Lung ([3]; females, 3.5 h post-injection): 1.5 ± 0.8 SUV
- PET/CT-derived distribution (SUV), Muscle ([3]; females, 3.5 h post-injection): 0.78 ± 0.54 SUV
- PET/CT-derived distribution (SUV), Myocardium ([3]; females, 3.5 h post-injection): 3.8 ± 1.8 SUV
- PET/CT-derived distribution (SUV), Pancreas ([3]; females, 3.5 h post-injection): 3.0 ± 1.2 SUV
- PET/CT-derived distribution (SUV), Parotid ([3]; females, 3.5 h post-injection): 25 ± 15 SUV
- PET/CT-derived distribution (SUV), Spleen ([3]; females, 3.5 h post-injection): 5.5 ± 2.8 SUV
- PET/CT-derived distribution (SUV), Stomach ([3]; females, 3.5 h post-injection): 51 ± 18 SUV
- PET/CT-derived distribution (SUV), Thyroid ([3]; females, 3.5 h post-injection): 58 ± 12 SUV
- blood clearance of radioactivity (left-ventricular blood pool time-activity curve) ([3]; healthy participants): multiphasic; also recorded: multi-phasic
- urinary clearance ([3]; healthy participants): prominent
- PET/CT-derived distribution (SUV), Bone ([3]; males, 2 h post-injection): 0.80 ± 0.33 SUV
- PET/CT-derived distribution (SUV), Brain ([3]; males, 2 h post-injection): 0.39 ± 0.14 SUV
- PET/CT-derived distribution (SUV), Gallbladder ([3]; males, 2 h post-injection): 2.7 ± 1.5 SUV
- PET/CT-derived distribution (SUV), Intestines ([3]; males, 2 h post-injection): 2.9 ± 1.0 SUV
- PET/CT-derived distribution (SUV), Kidney ([3]; males, 2 h post-injection): 7.0 ± 2.5 SUV
- PET/CT-derived distribution (SUV), Liver ([3]; males, 2 h post-injection): 2.3 ± 1.0 SUV
- PET/CT-derived distribution (SUV), Lung ([3]; males, 2 h post-injection): 1.0 ± 0.4 SUV
- PET/CT-derived distribution (SUV), Muscle ([3]; males, 2 h post-injection): 0.71 ± 0.31 SUV
- PET/CT-derived distribution (SUV), Myocardium ([3]; males, 2 h post-injection): 3.2 ± 0.9 SUV
- PET/CT-derived distribution (SUV), Pancreas ([3]; males, 2 h post-injection): 3.4 ± 0.7 SUV
- PET/CT-derived distribution (SUV), Parotid ([3]; males, 2 h post-injection): 11 ± 9 SUV
- PET/CT-derived distribution (SUV), Spleen ([3]; males, 2 h post-injection): 4.1 ± 1.2 SUV
- PET/CT-derived distribution (SUV), Stomach ([3]; males, 2 h post-injection): 33 ± 15 SUV
- PET/CT-derived distribution (SUV), Thyroid ([3]; males, 2 h post-injection): 55 ± 31 SUV
- PET/CT-derived distribution (SUV), Bone ([3]; males, 3.5 h post-injection): 1.4±0.5 SUV
- PET/CT-derived distribution (SUV), Brain ([3]; males, 3.5 h post-injection): 0.74 ± 0.26 SUV
- PET/CT-derived distribution (SUV), Gallbladder ([3]; males, 3.5 h post-injection): 4.2 ± 1.7 SUV
- PET/CT-derived distribution (SUV), Intestines ([3]; males, 3.5 h post-injection): 4.4 ± 1.0 SUV
- PET/CT-derived distribution (SUV), Kidney ([3]; males, 3.5 h post-injection): 11 ± 3 SUV
- PET/CT-derived distribution (SUV), Liver ([3]; males, 3.5 h post-injection): 3.6 ± 1.2 SUV
- PET/CT-derived distribution (SUV), Lung ([3]; males, 3.5 h post-injection): 1.7 ± 0.6 SUV
- PET/CT-derived distribution (SUV), Muscle ([3]; males, 3.5 h post-injection): 0.96 ± 0.31 SUV
- PET/CT-derived distribution (SUV), Myocardium ([3]; males, 3.5 h post-injection): 5.0 ± 0.9 SUV
- PET/CT-derived distribution (SUV), Pancreas ([3]; males, 3.5 h post-injection): 6.2 ± 2.1 SUV
- PET/CT-derived distribution (SUV), Parotid ([3]; males, 3.5 h post-injection): 16 ± 13 SUV
- PET/CT-derived distribution (SUV), Spleen ([3]; males, 3.5 h post-injection): 6.3 ± 1.1 SUV
- PET/CT-derived distribution (SUV), Stomach ([3]; males, 3.5 h post-injection): 70 ± 32 SUV
- PET/CT-derived distribution (SUV), Thyroid ([3]; males, 3.5 h post-injection): 82 ± 42 SUV
- time of peak radioactivity concentration, LVBP [3, 4]: ~1 min
- time of peak radioactivity concentration, liver [3, 4]: ~2 min
- time of peak radioactivity concentration, lung [3, 4]: ~1 min
- uptake in thyroid, stomach, salivary glands and kidney ([3]; whole-body PET/CT at 2 h post-injection): Robust uptake; also recorded: high uptakes
